One assay concerns HeLa eGFP/tub cells. The experiment in a line: eGFP knockout study by Cas9 RNP nanocarriers, flow cytometry. It is filed as cell-based. Conditions: 48 h treatment. The method, then: (§1) HeLa WT, HeLa eGFP/tub, HeLa GFPd2 (destabilized eGFP), CT26 eGFP/luc and N2a eGFP/luc cells were grown in DMEM medium supplemented with 10 % FBS, 100 U/mL penicillin, and 100 μg/mL streptomycin. The cells were cultured in ventilated flasks in the cell incubator at 37 °C and 5 % CO2 in a humidified atmosphere. The cells were passaged at a confluency of […]
(§2) Cells were harvested and resuspended in 600 μL of FACS buffer (PBS buffer containing 10 % FBS). The samples were ana-lyzed by flow cytometry on a CytoFLEX S flow cytometer (Beckman Coulter, CA, USA). For eGFP knockout and cellular uptake experiments, 0.6 μL of 1 μg/μL DAPI was added to each sample for differentiating live and dead cells before the measurement. The DAPI signal and BFP fluorescence were detected with 405 nm excitation and 450 nm emission. The eGFP and ATTO488 fluorescence was assayed with 488 nm excitation and 530 nm emission. The ATTO647N fluorescence was assayed with 640 nm excitation and 670 nm emission. Ten thousand of isolated live cells were counted and evaluated. The data were analyzed using FlowJo 7.6.5 by FlowJo, LLC (Becton, Dickinson and Company, USA). […]
(§3) Endosomal escape of Cas9 RNP nanocarriers […]
(§4) Next, the […]
(§5) cells were washed twice with PBS and then fixed with 4 % PFA at RT for 40 min. Afterwards, the cells were washed and incubated with 2 µg/mL DAPI (for staining cell nuclei) for 30 min. Then, the staining solution was removed and 300 μL fresh PBS were added. The slides w ere stored at 4 °C in the dark until the measurement. […]
(§6) Then, the image was conv erted into 8-bit type. The mRuby3/gal8 spots were further determined by Threshold tool, and the number of the spots in the cell cytosol per cell were counted by Analyze Particles tool.
One day prior to the treatments, HeLa eGFP/tub cell s were seeded into 96 -well plates at a density of 5000 cells/well. On the next day, the medium was replaced with 80 μL of fresh medium. 20 μL of Cas9 RNP nanocarriers were added to each well resulting in a series of concentrations of RNP (100, 75, 50, 25, 10, 5, 2.5, 1, 0.5, and 0.1 nM). Lipofectamine CRISPRMAX was tested at the same concentrations of RNP with the preparation procedures as recommended by the manufacturer. The cells were incubated for 48 h. Afterwards, the cells were trypsinized and transfer red to 24-well plates, and incubated for another 72 h. Then, the cells were harvested and prepared for flow cytometry analysis. All experiments were performed in triplicate. eGFP to BFP conversion (HDR) study
One day prior to the treatments, HeLa GFPd2 cel ls were seeded into 96 -well plates at a density of 5000 cells/well. On the next day, the medium was replaced with 80 μL of fresh medium. 20 μL of Cas9 RNP/ssDNA nanocarriers containing different molar ratios of RNP/ssDNA were added to each well resulting i n a series of concentrations of RNP (100, 75, 50, 25, 10, 5, 2.5, 1, 0.5, and 0.1 nM). Lipofectamine CRISPRMAX was tested at the same concentrations of RNP and ssDNA with the prepara-tion procedures as recommended by the manufacturer. The cells were incubat ed for 48 h. Afterwards, the cells were trypsinized and transferred to 24 -well plates, and incubated for another 72 h. Then, the cells were harvested and prepared for flow cytom-etry analysis. […]
Half maximal effective concentration (EC50) values were calculated by GraphPad prism 5. […] All other data were analyzed with GraphPad prism 5 and presented as arithmetic mean ± standard deviation (SD) of at least triplicates. […]

A further assay concerns HeLa WT cells. The experiment in a line: Endocytosis pathway study with inhibitors. It counts as cell-based. As to conditions: 1 mM amiloride 2 h, 75 nM RNP, 4 h, flow cytometry. The procedure:
sgRNA amount in naked Cas9/sgRNA ribonucleoproteins (Cas9 RNPs) or Cas9 RNP nanocarriers were determined using a Quant-iTTM RiboGreen® RNA assay kit (Invitrogen, CA, USA). 50 μL of naked Cas9 RNPs or Cas9 RNP nanocarriers con-taining 250 ng Cas9 protein and 50 ng sgRNA were mixed with 50 μL of TE buffer and were added to the 96-well plate. The plate was incubated for 10 min. Afterwards, 100 μL of Ribogreen solution (diluted 1:100 in TE buffer) was added to each well.
The plate was incubated for another 5 min. Ribogreen fluorescence intensity was detected using a microplate reader (Spectra-fluor Plus, Tecan, Männedorf, Switzerland) with excitation and emission wavelength of 485 and 528 nm, respectively. […]
Cells were harvested and resuspended in 600 μL of FACS buffer (PBS buffer containing 10 % FBS). […] The DAPI signal and BFP fluorescence were detected with 405 nm excitation and 450 nm emission. The eGFP and ATTO488 fluorescence was assayed with 488 nm excitation and 530 nm emission. The ATTO647N fluorescence was assayed with 640 nm excitation and 670 nm emission. Ten thousand of isolated live cells were counted and evaluated. The data were analyzed using FlowJo 7.6.5 by FlowJo, LLC (Becton, Dickinson and Company, USA).
Cell viability was determined using an MTT assay. […]
Cellular uptake of Cas9 RNP nanocarriers was evaluated by flow cytometry and confocal laser scanning microscopy (CLSM). […]

A further assay has as its system CT26 eGFP/luc cells. Briefly: eGFP knockout in CT26 eGFP/luc cells. It counts as cell-based, murine. Conditions: 1 nM RNP, 48 h treatment. The procedure:
as §1, §2, §3
(§7) Then, the image was conv erted into 8-bit type. The mRuby3/gal8 spots were further determined by Threshold tool, and the number of the spots in the cell cytosol per cell were counted by Analyze Particles tool. […]

In another assay the test system is N2a eGFP/luc cells. Briefly: eGFP knockout in N2a eGFP/luc cells. It counts as cell-based, murine. As to conditions: 1 nM RNP, 48 h treatment. The method, then: as §1, §2, §3, §7
The next assay relates to HeLa GFPd2 cells. Briefly: eGFP to BFP conversion (HDR) study, Cas9 RNP/ssDNA co-delivery. Conditions: for HDR: RNP/ssDNA 1/4, 48 h. It is filed as cell-based. The method, then: as §1, §2, §3, §4, §5, §6
One day prior to the treatments, HeLa eGFP/tub cell s were seeded into 96 -well plates at a density of 5000 cells/well. On the next day, the medium was replaced with 80 μL of fresh medium. 20 μL of Cas9 RNP nanocarriers were added to each well resulting in a series of concentrations of RNP (100, 75, 50, 25, 10, 5, 2.5, 1, 0.5, and 0.1 nM). […]

Structures are written as SMILES.

For `CCCCC/C=C\C/C=C\CCCCCCCC(=O)NCCCC[C@H](NC(=O)CCCCCCC/C=C\C/C=C\CCCCC)C(=O)NCCCC[C@H](NC(=O)CCC(=O)NCCNCCNCCNCCNC(=O)[C@H](Cc1ccc(O)cc1)NC(=O)[C@H](Cc1ccc(O)cc1)NC(=O)[C@H](Cc1ccc(O)cc1)NC(=O)[C@@H](N)CCCCN=[N+]=[N-])C(=O)NCCNCCNCCNCCNC(=O)CCC(=O)N[C@@H](Cc1ccc(O)cc1)C(=O)N[C@@H](Cc1ccc(O)cc1)C(=O)N[C@@H](Cc1ccc(O)cc1)C(=O)O` [Stp1-LinA], in the assay with HeLa eGFP/tub cells (1 nM RNP, N/P 24), the eGFP knockout was roughly 80%. Besides, in the assay with HeLa WT cells, the “Cas9 RNP uptake after pretreatment with amiloride (macropinocytosis)” value is “blocked”.

`CCCCC/C=C\C/C=C\CCCCCCCC(=O)NCCCC[C@H](NC(=O)CCCCCCC/C=C\C/C=C\CCCCC)C(=O)NCCCC[C@H](NC(=O)CN(CC(=O)NCCNCCNCCNCCNC(=O)[C@H](Cc1ccc(O)cc1)NC(=O)[C@H](Cc1ccc(O)cc1)NC(=O)[C@H](Cc1ccc(O)cc1)NC(=O)[C@@H](N)CCCCN=[N+]=[N-])CC(F)(F)F)C(=O)NCCNCCNCCNCCNC(=O)CN(CC(=O)N[C@@H](Cc1ccc(O)cc1)C(=O)N[C@@H](Cc1ccc(O)cc1)C(=O)N[C@@H](Cc1ccc(O)cc1)C(=O)O)CC(F)(F)F` [TFE-IDAtp1-LinA]: the “eGFP knockout (disruption)” value in the assay on HeLa eGFP/tub cells (0.5 nM (500 pM) RNP) is reported as roughly 61%. In addition, the eGFP knockout in the assay on HeLa eGFP/tub cells (1 nM RNP, N/P 24) is reported as roughly 88%; in the assay on HeLa eGFP/tub cells (RNP concentrations down to 5 nM), “up to 99%”; with CT26 eGFP/luc cells it was roughly 55%; in the assay with N2a eGFP/luc cells, 13.4%. The HDR in the assay with HeLa GFPd2 cells (HeLa GFPd2, 0.5 nM RNP) is roughly 11%; in the assay with HeLa GFPd2 cells (HeLa GFPd2, 1 nM RNP) it was roughly 23%. The HDR efficiency in the assay on HeLa GFPd2 cells (HeLa GFPd2, 10 nM RNP, RNP/ssDNA ratio 1/8, N/P 12, 48 h) is reported as roughly 28%.

For the origin of these results see publication PMC10360056, “Chemical Evolution of Amphiphilic Xenopeptides for Potentiated Cas9 Ribonucleoprotein Delivery” (Journal of the American Chemical Society, 2023).
